Assay results: US20220218725A1, “METHODS AND MATERIALS FOR TREATING CANCER” (Mayo Foundation for Medical Education and Research, priority 2019, published 2022)
Read-outs that look alike come from different tables or passages of the source.

How the values were obtained:
Nonmalignant BM MNC = test: Viability of nonmalignant cells, Annexin V/PI assay; type: cell-based, human; settings: 48 h, KPT-330 0.05-0.5 μM, CS 1-3 mM
Description: (§1) Primary patient samples were obtained. The mononuclear cells were obtained from bone marrow, spleen, peripheral blood and lymph nodes as follows. Freshly obtained tissue (lymph node, spleen, bone marrow) was placed in mesh screen and using a syringe plunger, the tissue was pressed into a petri dish. Samples were then rinsed through the screen using measured amounts of RPMI until all tissue has been pressed through. […] Subsequently the mononuclear cells were isolated via centrifugation in the presence of ficoll and this step was again repeated following washing the cells with RPMI media.
(§2) To isolate peripheral blood mononuclear cells (PBMCs), freshly obtained patient blood sample of patients were centrifuged in the present of ficoll and this step was repeated twice following washing the cells with PBS. Following isolating the mononuclear cells, the viability was assessed and ascertained proper viability above 80% prior to conduct respective experiments. Non-malignant cells were confirmed not to have a malignant condition by pathology review of the tissue.

Nonmalignant PBMC = test: as above; type: cell-based, human; settings: 48 h, KPT-330 0.05-0.5 μM, CS 1-3 mM
Description: as §1, §2

Nonmalignant splenic MNC = test: as above; type: cell-based, human; settings: 48 h, KPT-330 0.05-0.5 μM, CS 1-3 mM
Description: as §1, §2

DHL6 cells = test: Cell viability, Annexin V/PI assay; settings: DHL6 (DLBCL); 48 hours; KPT-330 0.1-1.0 μM, CS 1-3 mM, single agent or combination
Experimental: Cell lines were purchased from the cell line repositories ATCC (Manassas, Va.) or DSMZ (Braunschweig, Germany). These included MCL cell lines: JeKo-1, Mino; TCL cell lines: Karpas-299, SR-786; DLBCL cell lines: OCI-Ly1 (LY-1), OCI-Ly3 (LY-3), OCI-Ly19 (LY-19), SU-DHL-6 (DHL-6); MM cell lines: RPMI, U266, OPM2, Xgl, KMS2; ALL cell lines: CRL-1783; non-small cell lung cancer: NCI-H460, A549, HCC827; small cell lung cancer: H1048; sarcoma: Fuji, SW872. Cell lines were cultured according to instruction.
KPT-330 purchased from Selleckchem (cat no: S7252) was dissolved in DMSO while CS (Santa Cruz, Calif.S 2016-36-6), sodium salicylate (Sigma-Aldrich, cat no: S3007), acetyl salicylate (Sigma-Aldrich, cat no: CAS 50-78-2) was diluted in PBS. Ketorolac (Sigma-Aldrich, cat no: 1356665), Bortezomib (Selleckchem, cat no: S1013), gemcitabine (Sigma-Aldrich, cat no: G6423), Leptomycin-B (Sigma-Aldrich, cat no: L2913-2X) and KPT-185 (Selleckchem, cat no: S7125) were dissolved in DMSO. The concentration range of KPT-330 was 0.05-1.0 μM while CS was 1-3 mM were used for ex vivo treatment and incubation time ranged from 24 hours to 72 hours. For the PARP inhibitor assay, olaparib 10 μM (SelleckChem, cat no: AZD2281 Ku-0059436) was used.
The viability assessment for cell lines and primary patients samples were conducted with the Annexin V/PI method.

[1] = Viability of nonmalignant cells, Annexin V/PI assay; type: cell-based, human; settings: human, KPT-330 0.05-0.5 μM, CS 1-3 mM, read-out: % viability normalized for respective controls
Description: as §1, §2

[2] = tested on: U2OS cells transfected with nuclear export reporter construct (NLS-GFP-NES); test: Nuclear export efficiency assay (NLS-GFP-NES reporter); type: cell-based; settings: 24 hours, KPT-330 at 0.5 μM, 100 reporter-expressing cells scored
Description: A GFP reporter construct was made using the backbone of pEGFP-N1 vector. Specifically, the green fluorescence (GFP) was in-frame tagged with 3 consecutive copies of nuclear localization sequence (NLS) of SV40 large T antigen to the N-terminus and 3 consecutive copies of nuclear export sequences (NES) of HIV Rev to the C-terminus. The resulting construct encodes NLS-GFP-NES fusion protein capable of shuttling freely between the nucleus and the cytoplasm. The construct DNA was transfection into U2OS cells using Lipofectamine 2000 reagent (Life Technologies) according to product instruction. Six hours post transfection, the cells were treated with vehicle, CS, KPT-330, and K+CS for 24 hours. Finally, the treated cells were fixed with 4% PFA, and permeabilized, and stained for endogenous expression of CRM1 protein with anti-CRM1 antibody (Cell Signaling, Danvers, Mass.; catalog number: 46249, dilution 1:1500). Cell images were collected on a Zeiss LSM 780 confocal microscope.

Compound	% viability normalized for respective controls (Nonmalignant BM MNC) [%]	% viability normalized for respective controls (Nonmalignant PBMC) [%]	% viability normalized for respective controls (Nonmalignant splenic MNC; Splenic MNC (sample of r39)) [%]	% viability normalized for respective controls (Nonmalignant splenic MNC; Splenic MNC (sample of r40)) [%]	% viability normalized for respective controls (Nonmalignant splenic MNC; Splenic MNC (sample of r41)) [%]	% viability normalized for respective controls (Nonmalignant splenic MNC; Splenic MNC (sample of r42)) [%]	% viability normalized for respective controls (DHL6 cells) [%]	viability at 48 h ([1]; nonmalignant bone marrow mononuclear cells, BM MNC) [%]	viability at 48 h ([1]; nonmalignant peripheral blood mononuclear cells (PBMC)) [%]	viability at 48 h ([1]; nonmalignant splenic mononuclear cells, Splenic MNC (sample of r39)) [%]	viability at 48 h ([1]; nonmalignant splenic mononuclear cells, Splenic MNC (sample of r40)) [%]	viability at 48 h ([1]; nonmalignant splenic mononuclear cells, Splenic MNC (sample of r41)) [%]	viability at 48 h ([1]; nonmalignant splenic mononuclear cells, Splenic MNC (sample of r42)) [%]	cells with complete nuclear localization of GFP [2] [%]
C[N+](C)(C)CCO.O=C([O-])c1ccccc1O [CS, choline salicylate]	82	78	82	64	76	76	101							
O=C(/C=C\n1cnc(-c2cc(C(F)(F)F)cc(C(F)(F)F)c2)n1)NNc1cnccn1 [KPT-330, (Z)-3-[3-[3,5-bis (trifluoromethyl)phenyl]-1,2,4-triazol-1-yl]-N′-pyrazin-2-ylprop-2-enehydrazide]								78	86	84	66	59	58	28
